# Values joined by “and” are separate entries in the source; they are usually repeats but may differ in a detail not shown here. Identical values can stand only once.
# Legend:
# [1] = tested on: flies expressing G12V in their wing; experiment: Fly assay, wing phenotype reversal; assay type: in vivo, Drosophila
# Description: Each wing from mutant flies receiving treatment with either water or compound received a score from two independent scorers according to the scheme outlined in the schematic. The analysis of the scores given to the compound group was compared to the scores given for the control (water) group.
# Embryo preparation. GAL4 virgin ♀ were collected over a period of 3-5 days, then crossed with kRAS G12V (3M) ♂ inside a plastic condo supplied with grape agar containing yeast paste. Flies were acclimated for 2 days and embryos present after a span of 4-5 hours were collected along with the agar plate and incubated for 24 hours. The next day, embryos were washed off the agar plate with Embryo Wash solution (120 mM NaCl, 0.03% Triton X) and resuspended in Embryo Inoculation solution (120 mM NaCl, 420 mM Sucrose, 0.05% Triton X-100). Embryos were counted and diluted to 15 embryos/10 μL. 150 embryos (100 μL) were dispensed into each vial.
# Food-drug admix preparation. Each fly vial contains 1.5 g of fly food in 4 ml water. The quantity of drug needed is calculated for a total of 4 vials, each vial containing 10 μM of Structure 2. This is equivalent to 0.014 mg of Structure 2/vial, for a total of 0.056 mg of Structure 2.
# A stock solution of 0.1 mg/mL Structure 2 in ethanol is prepared. A 500-ml round bottom flask is charged with 6 g of fly food (1.5 g×4), to which is added 20 mL of ethanol, ensuring that the food is entirely covered in solvent. To this heterogeneous solution is added an appropriate amount of Structure 2 stock solution, containing the calculated required quantity, in this case 0.56 mL stock solution.
# The ethanol is evaporated under reduced pressure via a rotary evaporator equipped with a bump trap. The resulting dry food is added to three vials, each containing 1.5 g, so that the experiment is performed in triplicate. The quantity is calculated initially for 4 vials, because some food will be stuck to the walls of the round bottom flask and some is also invariably lost in the bump trap during the solvent evaporation step. Control vials lacking Structure 2 or Structure 3 are also analyzed and undergo the exact same food preparation and solvent extraction procedure.
# Embryo addition to vials. After all the food-drug admix is prepared and added to the respective vials, to each vial is added 4 mL of water and the vial briefly vortexed. To this liquid mixture is added the embryo solution (100 μL), the vials capped and placed in an incubator or fly room.
# Wing mounting and scoring. Flies hatch 10-12 days after the above experimental setup is performed. The resulting adult flies are submerged in a 3:1 70% ethanol:glycerol solution for 24 hours, then wings are dissected with curved Vannas spring scissors (FST #15001-08). The wings are mounted in an 80% glycerol solution on a microscope slide under coverslip seal.
# Pictures of the wings were taken using an Accu-Scope microscope equipped with a digital camera and connected to a laptop containing the Accu-Scope Micrometric SE Premium software. The wings were scored according to the following scoring tree:
# Wing score analysis. After each wing received a score from two independent scorers, the analysis of the scores given to the Structure 2 and 3 groups was compared to the scores given for the control group and was performed using the IBM SPSS software.
# Wings that received a score of 3 or above are considered “reversed”, since their phenotype is closer to WT than to kRAS G12V bearing Drosophila. The findings are plotted in FIG. 9. […]
# [2] = tested on: phosphorylated ERK 1/2 (T202/Y204); experiment: Phosphorylated ERK bioassay (Western blot, SW480 cells); assay type: cell-based, human; settings: 3 μM, 24 hours, in the presence of serum
# Protocol: As described herein, the main downstream target for kRAS is ERK (Samatar et al., Targeting RAS-ERK signaling in cancer: promises and challenges. Nat Rev Drug Discov. 2014; 13:928-42). kRAS activates ERK leading to phosphorylated ERK. A compound that suppresses kRAS activity is expected to lower phosphorylated ERK.
# Test articles abrogate the expression of phosphorylated ERK (T202/Y204) SW480 cells were subjected to test article incubation at 3 μM for 24 hours in the presence of serum to mimic natural growth environment. Cells were extracted and total protein of samples normalized through BCA assay. Processed extracts were subjected to SDS-PAGE/Western blot and blotted for phosphorylated ERK 1/2 (T202/Y204); ERK 1/2; and α-Tubulin.
# The compound U0126 in FIG. 8 is a MEK inhibitor which is known to suppress phosphorylation of ERK. The compound was tested along with the test articles to serve as a positive control.
# [3] = tested on: HT29; experiment: Cytotoxicity assay, HT29 cells; assay type: cell-based; settings: human colon cancer cell line HT29
# Protocol: (§1) Compounds were assayed for inhibition of cell proliferation and killing cancer cells. Cytotoxicity assays were conducted according to the following general procedure. SW480, SW48, SW900, SW620 were all maintained in Leibowitz L15 media supplemented with 10% fetal bovine serum and 1% PenStrep and grown in a 37° C. incubator without supplemental CO2. Capan-1 cells were maintained in Iscove's Modified Dulbecco's Medium (ATCC 30-2005) containing 20% fetal bovine serum and 1% PenStrep and grown in a 37° C. incubator containing 5% CO2.
# [4] = tested on: H322; experiment: Cytotoxicity assay, H322 cells; assay type: cell-based; settings: H322, human lung cancer cell line expressing wild type kRAS
# Protocol: as §1
# [5] = tested on: SW900 cells; experiment: Cytotoxicity assay, CellTiter-Glo 2.0, SW900 cells; assay type: cell-based; settings: SW900, human lung cancer cell expressing kRAS G12V; 48 hours
# Protocol: FIG. 4, panels A-B, illustrates the cytotoxicity of Structure 2 and Structure 3 on SW900 cells. The cytotoxicity of compounds of interest were tested against the human lung cancer cell line SW900 as described in the experimental section. SW900 cells express a G12V mutant kRAS. Compounds were incubated with cells for 48 hours and the assay was developed using Cell Titer Glo 2.0. IC50 vales were determined using GraphPad Prism 4.
# as §1
# For dose-response assays, SW480 cells were plated into 96 well plates (1 million/plate, ˜10,000/well, 250 μL media/well). Cells were allowed to settle and adhere to plate bottom overnight Compounds were placed in 500 μL media and mixed. Then 250 μL compounds+media was placed in an intermediate plate in row A. Rows B through H were filled with 125 μL media. […] Luminescence was read with FLx800 (BioTek Instruments).
smiles,measurement,setting,value
"Cc1nc(-c2ccc(CNC(=O)c3cc(CC(C)C)nn3C)cc2)no1 [Structure 2, 3-isobutyl-1-methyl-N-(4-(5-methyl-1,2,4-oxadiazol-3-yl)benzyl)-1H-pyrazole-5-carboxamide]","Wing score, Scored 1-6, Mean ± SD","[1]; 10 μmolar in fly food, control 1.86 ± 0.62",2.15
same,wing scores compared to the control group,"[1]; Tukey HSD and LSD p<0.001, Mann Whitney p=0.002",significantly different from the control group
same,Reversal Phenotype (%),"[1]; wings with score of 3 or above, Structure 2 at 10 μmolar, control 8.27",24% and 24.31%
same,phosphorylated ERK (T202/Y204),[2],dramatically decrease phosphorylated ERK
same,not cytotoxic at concentrations up to,[3],> 40 µM
same,not cytotoxic at concentrations up to,[4],> 200 µM
same,IC50,[5],351 nM

# — patent US12486255B2, “Modulators of RAS GTPase” (Tosk, Inc., priority 2018, dated 2025)
